Test results reported in the kinase profiling compilation of Christmann-Franck et al. (2016).

Columns and labels:
Assay in all cases: radiometric filter-binding kinase assay, Kinase HotSpot
Settings in all cases: compound 0.5 µM; ATP 10 µM
ADRBK2 (human) = ADRBK2 (human) (UniProt P35626)
CAMK2A (human) = CAMK2A (human) (UniProt Q9UQM7)
CAMK4 (human) = CAMK4 (human) (UniProt Q16566)
CAMKK1 (human) = CAMKK1 (human) (UniProt Q8N5S9)
CDK1 CCNB1 (human) = CDK1 CCNB1 (human) (UniProt P06493+P14635)
CSNK2A1 (human) = CSNK2A1 (human) (UniProt P68400)
DYRK3 (human) = DYRK3 (human) (UniProt O43781)
EPHA2 (human) = EPHA2 (human) (UniProt P29317)
EPHA3 (human) = EPHA3 (human) (UniProt P29320)
EPHA8 (human) = EPHA8 (human) (UniProt P29322)
FGFR2 (human) = FGFR2 (human) (UniProt P21802)
GRK4 (human) = GRK4 (human) (UniProt P32298)
INSR (human) = INSR (human) (UniProt P06213)
INSRR (human) = INSRR (human) (UniProt P14616)
MAPK1 (human) = MAPK1 (human) (UniProt P28482)
MAPKAPK2 (human) = MAPKAPK2 (human) (UniProt P49137)
MARK2 (human) = MARK2 (human) (UniProt Q7KZI7)
MERTK (human) = MERTK (human) (UniProt Q12866)
MKNK2 (human) = MKNK2 (human) (UniProt Q9HBH9)
MYLK (human) = MYLK (human) (UniProt Q15746)
MYLK2 (human) = MYLK2 (human) (UniProt Q9H1R3)
NEK2 (human) = NEK2 (human) (UniProt P51955)
NEK9 (human) = NEK9 (human) (UniProt Q8TD19)
NLK (human) = NLK (human) (UniProt Q9UBE8)
NUAK2 (human) = NUAK2 (human) (UniProt Q9H093)
PAK1 (human) = PAK1 (human) (UniProt Q13153)
PAK2 (human) = PAK2 (human) (UniProt Q13177)
PAK4 (human) = PAK4 (human) (UniProt O96013)
PIM3 (human) = PIM3 (human) (UniProt Q86V86)
PRKCG (human) = PRKCG (human) (UniProt P05129)
PTK6 (human) = PTK6 (human) (UniProt Q13882)
RAF1 (human) = RAF1 (human) (UniProt P04049)
RET (human) = RET (human) (UniProt P07949)
ROCK1 (human) = ROCK1 (human) (UniProt Q13464)
RPS6KA1 KD1 KD2 (human) = RPS6KA1 KD1 KD2 (human) (UniProt Q15418)
SGK3 (human) = SGK3 (human) (UniProt Q96BR1)
SRPK2 (human) = SRPK2 (human) (UniProt P78362)
STK17A (human) = STK17A (human) (UniProt Q9UEE5)
TAOK3 (human) = TAOK3 (human) (UniProt Q9H2K8)
TTK (human) = TTK (human) (UniProt P33981)
ULK2 (human) = ULK2 (human) (UniProt Q8IYT8)
HIPK1 (human) = HIPK1 (human) (UniProt Q86Z02)

Sequence of TAOK3 (human) (Q9H2K8 whole entry, looked up): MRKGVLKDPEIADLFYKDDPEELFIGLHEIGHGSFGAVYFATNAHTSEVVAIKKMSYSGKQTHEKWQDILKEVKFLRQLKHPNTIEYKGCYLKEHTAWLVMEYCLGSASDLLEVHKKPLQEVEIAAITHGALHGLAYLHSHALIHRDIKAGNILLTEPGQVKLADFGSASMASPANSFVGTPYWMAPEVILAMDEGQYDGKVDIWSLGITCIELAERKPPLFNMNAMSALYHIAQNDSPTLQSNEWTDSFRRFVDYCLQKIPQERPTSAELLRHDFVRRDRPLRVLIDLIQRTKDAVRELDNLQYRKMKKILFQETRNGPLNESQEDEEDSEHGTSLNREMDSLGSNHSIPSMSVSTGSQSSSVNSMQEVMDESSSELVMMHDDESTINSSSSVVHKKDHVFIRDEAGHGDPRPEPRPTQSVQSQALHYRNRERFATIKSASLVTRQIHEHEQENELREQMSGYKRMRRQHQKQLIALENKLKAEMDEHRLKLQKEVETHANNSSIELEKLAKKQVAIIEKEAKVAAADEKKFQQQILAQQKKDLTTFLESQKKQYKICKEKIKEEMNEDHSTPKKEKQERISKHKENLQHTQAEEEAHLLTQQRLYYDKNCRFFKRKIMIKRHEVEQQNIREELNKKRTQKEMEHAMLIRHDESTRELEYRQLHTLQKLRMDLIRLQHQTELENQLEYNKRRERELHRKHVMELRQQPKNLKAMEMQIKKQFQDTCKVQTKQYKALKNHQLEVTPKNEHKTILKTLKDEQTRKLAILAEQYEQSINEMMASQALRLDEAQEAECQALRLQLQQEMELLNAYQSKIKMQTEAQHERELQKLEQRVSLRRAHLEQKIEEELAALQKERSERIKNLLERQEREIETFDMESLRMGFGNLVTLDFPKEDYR
Sequence of MYLK (human) (Q15746 whole entry, looked up): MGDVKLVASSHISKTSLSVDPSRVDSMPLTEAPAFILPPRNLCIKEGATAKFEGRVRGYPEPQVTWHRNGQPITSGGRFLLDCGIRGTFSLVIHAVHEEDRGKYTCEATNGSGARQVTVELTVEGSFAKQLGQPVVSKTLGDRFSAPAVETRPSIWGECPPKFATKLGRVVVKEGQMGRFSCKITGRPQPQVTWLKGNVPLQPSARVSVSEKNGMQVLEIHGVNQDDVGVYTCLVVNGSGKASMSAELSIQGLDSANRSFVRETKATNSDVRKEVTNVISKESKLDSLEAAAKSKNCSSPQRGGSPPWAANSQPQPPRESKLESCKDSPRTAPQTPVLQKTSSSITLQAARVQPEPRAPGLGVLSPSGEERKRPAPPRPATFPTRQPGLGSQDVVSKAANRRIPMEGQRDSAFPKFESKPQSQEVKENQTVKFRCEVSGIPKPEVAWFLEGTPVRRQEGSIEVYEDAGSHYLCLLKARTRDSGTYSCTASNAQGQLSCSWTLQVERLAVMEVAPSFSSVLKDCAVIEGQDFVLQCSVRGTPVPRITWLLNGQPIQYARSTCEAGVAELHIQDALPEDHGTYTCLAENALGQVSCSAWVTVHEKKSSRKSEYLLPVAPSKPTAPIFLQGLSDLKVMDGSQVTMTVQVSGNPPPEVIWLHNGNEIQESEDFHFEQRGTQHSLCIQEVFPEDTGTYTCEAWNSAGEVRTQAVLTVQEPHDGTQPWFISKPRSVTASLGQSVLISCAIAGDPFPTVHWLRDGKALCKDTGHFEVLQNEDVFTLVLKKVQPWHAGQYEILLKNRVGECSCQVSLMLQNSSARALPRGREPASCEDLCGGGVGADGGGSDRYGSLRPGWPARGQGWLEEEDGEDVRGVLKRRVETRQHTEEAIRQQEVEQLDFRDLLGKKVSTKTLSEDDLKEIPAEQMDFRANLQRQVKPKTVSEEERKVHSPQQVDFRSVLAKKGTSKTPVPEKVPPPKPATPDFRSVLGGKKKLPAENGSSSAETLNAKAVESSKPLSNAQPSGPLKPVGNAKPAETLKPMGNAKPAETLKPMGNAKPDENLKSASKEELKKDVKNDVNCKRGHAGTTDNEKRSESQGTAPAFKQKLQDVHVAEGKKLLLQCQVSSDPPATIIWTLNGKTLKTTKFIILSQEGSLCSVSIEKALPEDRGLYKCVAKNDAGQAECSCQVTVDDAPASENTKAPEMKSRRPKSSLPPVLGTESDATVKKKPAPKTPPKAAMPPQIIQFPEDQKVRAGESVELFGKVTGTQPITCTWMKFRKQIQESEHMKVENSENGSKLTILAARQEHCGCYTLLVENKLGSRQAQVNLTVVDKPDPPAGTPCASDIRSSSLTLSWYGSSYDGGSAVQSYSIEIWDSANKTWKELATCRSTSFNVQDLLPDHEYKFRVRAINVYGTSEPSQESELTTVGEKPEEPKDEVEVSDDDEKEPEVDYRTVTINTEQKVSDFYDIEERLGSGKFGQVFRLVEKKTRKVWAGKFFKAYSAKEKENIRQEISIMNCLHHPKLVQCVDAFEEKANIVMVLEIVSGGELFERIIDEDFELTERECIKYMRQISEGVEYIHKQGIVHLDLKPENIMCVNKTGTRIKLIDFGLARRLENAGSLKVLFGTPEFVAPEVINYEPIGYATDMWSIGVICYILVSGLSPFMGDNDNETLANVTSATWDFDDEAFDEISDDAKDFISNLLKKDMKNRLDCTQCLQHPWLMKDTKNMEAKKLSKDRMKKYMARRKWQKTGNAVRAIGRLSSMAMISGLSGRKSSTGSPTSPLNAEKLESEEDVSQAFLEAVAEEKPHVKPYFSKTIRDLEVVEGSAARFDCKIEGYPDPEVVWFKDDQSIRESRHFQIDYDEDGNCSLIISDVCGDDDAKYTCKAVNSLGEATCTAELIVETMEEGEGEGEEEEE
Sequence of MAPK1 (human) (P28482 whole entry, looked up): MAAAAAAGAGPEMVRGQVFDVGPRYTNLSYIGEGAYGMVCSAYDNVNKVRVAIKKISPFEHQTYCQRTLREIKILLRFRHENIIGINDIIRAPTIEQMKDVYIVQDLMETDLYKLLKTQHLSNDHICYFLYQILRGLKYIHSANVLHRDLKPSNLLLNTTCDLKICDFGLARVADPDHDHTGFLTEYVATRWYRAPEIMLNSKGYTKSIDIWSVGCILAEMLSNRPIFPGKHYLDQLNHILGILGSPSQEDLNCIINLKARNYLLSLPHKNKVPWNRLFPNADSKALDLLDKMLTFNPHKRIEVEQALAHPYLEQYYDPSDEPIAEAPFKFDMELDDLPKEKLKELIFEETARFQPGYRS
Sequence of CAMK4 (human) (Q16566 whole entry, looked up): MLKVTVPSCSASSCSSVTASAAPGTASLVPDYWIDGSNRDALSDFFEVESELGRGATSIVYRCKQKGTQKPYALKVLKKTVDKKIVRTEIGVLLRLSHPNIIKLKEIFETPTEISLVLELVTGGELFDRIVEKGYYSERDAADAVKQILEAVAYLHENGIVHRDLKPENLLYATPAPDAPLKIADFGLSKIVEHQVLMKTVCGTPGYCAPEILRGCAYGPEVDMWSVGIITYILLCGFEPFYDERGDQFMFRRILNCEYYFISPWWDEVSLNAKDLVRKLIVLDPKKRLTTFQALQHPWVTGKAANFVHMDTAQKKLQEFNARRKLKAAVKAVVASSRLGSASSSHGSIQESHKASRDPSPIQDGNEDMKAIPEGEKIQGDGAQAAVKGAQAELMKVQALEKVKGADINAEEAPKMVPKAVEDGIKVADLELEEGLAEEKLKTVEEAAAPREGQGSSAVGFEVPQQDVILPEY
Sequence of MYLK2 (human) (Q9H1R3 whole entry, looked up): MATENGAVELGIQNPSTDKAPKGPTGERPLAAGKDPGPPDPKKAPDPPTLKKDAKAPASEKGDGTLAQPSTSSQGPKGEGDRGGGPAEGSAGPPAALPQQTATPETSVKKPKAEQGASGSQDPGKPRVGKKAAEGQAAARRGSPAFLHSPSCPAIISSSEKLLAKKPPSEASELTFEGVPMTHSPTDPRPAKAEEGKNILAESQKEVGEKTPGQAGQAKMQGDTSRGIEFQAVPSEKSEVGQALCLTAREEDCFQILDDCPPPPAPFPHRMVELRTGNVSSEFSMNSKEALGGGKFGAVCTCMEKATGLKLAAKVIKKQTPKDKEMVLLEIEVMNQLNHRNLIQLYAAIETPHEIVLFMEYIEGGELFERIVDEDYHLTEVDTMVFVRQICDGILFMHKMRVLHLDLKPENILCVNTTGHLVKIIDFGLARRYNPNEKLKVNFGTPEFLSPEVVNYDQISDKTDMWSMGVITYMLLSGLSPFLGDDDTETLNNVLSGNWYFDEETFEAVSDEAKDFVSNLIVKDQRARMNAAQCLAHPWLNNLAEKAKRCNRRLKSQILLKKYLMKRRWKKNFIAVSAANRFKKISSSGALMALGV
Sequence of PAK1 (human) (Q13153 whole entry, looked up): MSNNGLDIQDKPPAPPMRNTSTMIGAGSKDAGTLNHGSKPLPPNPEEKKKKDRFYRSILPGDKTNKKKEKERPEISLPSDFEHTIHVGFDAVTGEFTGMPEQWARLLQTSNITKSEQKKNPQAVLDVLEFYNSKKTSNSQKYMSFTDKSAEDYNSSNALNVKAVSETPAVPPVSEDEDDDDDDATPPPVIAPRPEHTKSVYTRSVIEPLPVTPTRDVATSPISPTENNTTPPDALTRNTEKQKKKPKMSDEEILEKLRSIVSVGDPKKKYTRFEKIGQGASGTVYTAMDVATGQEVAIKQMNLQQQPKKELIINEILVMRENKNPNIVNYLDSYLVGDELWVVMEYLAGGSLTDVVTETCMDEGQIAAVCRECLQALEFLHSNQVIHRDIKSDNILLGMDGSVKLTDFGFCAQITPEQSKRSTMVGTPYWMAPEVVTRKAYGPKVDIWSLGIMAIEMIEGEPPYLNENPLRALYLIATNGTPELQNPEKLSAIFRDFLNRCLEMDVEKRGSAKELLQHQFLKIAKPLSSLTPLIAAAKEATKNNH

Nc1nnc2[nH]c3ccccc3nc1-2
residual activity (ADRBK2 (human)): 92.4% | residual activity (CAMK2A (human)): 99.5% | residual activity (CAMK4 (human)): 104% | residual activity (CAMKK1 (human)): 112% | residual activity (CDK1 CCNB1 (human)): 79.6% | residual activity (CSNK2A1 (human)): 87.6% | residual activity (DYRK3 (human)): 102% | residual activity (EPHA2 (human)): 98.5% | residual activity (EPHA3 (human)): 95.2% | residual activity (EPHA8 (human)): 104% | residual activity (FGFR2 (human)): 98.1% | residual activity (GRK4 (human)): 98.9% | residual activity (INSR (human)): 95.3% | residual activity (INSRR (human)): 89.3% | residual activity (MAPK1 (human)): 100% | residual activity (MAPKAPK2 (human)): 105% | residual activity (MARK2 (human)): 110% | residual activity (MERTK (human)): 92.9% | residual activity (MKNK2 (human)): 89.1% | residual activity (MYLK (human)): 93.6% | residual activity (MYLK2 (human)): 90.5% | residual activity (NEK2 (human)): 99.6% | residual activity (NEK9 (human)): 98.5% | residual activity (NLK (human)): 95.2% | residual activity (NUAK2 (human)): 96.3% | residual activity (PAK1 (human)): 97.1% | residual activity (PAK2 (human)): 104% | residual activity (PAK4 (human)): 104% | residual activity (PIM3 (human)): 94% | residual activity (PRKCG (human)): 97.3% | residual activity (PTK6 (human)): 84.1% | residual activity (RAF1 (human)): 94.4% | residual activity (RET (human)): 97.1% | residual activity (ROCK1 (human)): 99% | residual activity (RPS6KA1 KD1 KD2 (human)): 97.9% | residual activity (SGK3 (human)): 96.6% | residual activity (SRPK2 (human)): 95.9% | residual activity (STK17A (human)): 95.2% | residual activity (TAOK3 (human)): 97.1% | residual activity (TTK (human)): 102% | residual activity (ULK2 (human)): 95.9%

COc1ccc(CNC(=O)Nc2ncc([N+](=O)[O-])s2)cc1
residual activity (ADRBK2 (human)): 112% | residual activity (CAMK2A (human)): 98.8% | residual activity (CAMK4 (human)): 96.7% | residual activity (CAMKK1 (human)): 119% | residual activity (CDK1 CCNB1 (human)): 85.1% | residual activity (CSNK2A1 (human)): 94.2% | residual activity (DYRK3 (human)): 105% | residual activity (EPHA2 (human)): 100% | residual activity (EPHA3 (human)): 111% | residual activity (EPHA8 (human)): 109% | residual activity (FGFR2 (human)): 97.4% | residual activity (GRK4 (human)): 92.1% | residual activity (HIPK1 (human)): 100% | residual activity (INSRR (human)): 99.2% | residual activity (MAPK1 (human)): 104% | residual activity (MAPKAPK2 (human)): 112% | residual activity (MARK2 (human)): 106% | residual activity (MERTK (human)): 91.1% | residual activity (MKNK2 (human)): 95.7% | residual activity (MYLK (human)): 94.1% | residual activity (MYLK2 (human)): 98.5% | residual activity (NEK2 (human)): 99.1% | residual activity (NEK9 (human)): 89.4% | residual activity (NLK (human)): 102% | residual activity (NUAK2 (human)): 89.9% | residual activity (PAK1 (human)): 94.2% | residual activity (PAK2 (human)): 102% | residual activity (PAK4 (human)): 115% | residual activity (PIM3 (human)): 108% | residual activity (PRKCG (human)): 99.8% | residual activity (PTK6 (human)): 99.6% | residual activity (RAF1 (human)): 94% | residual activity (RET (human)): 97.9% | residual activity (ROCK1 (human)): 102% | residual activity (RPS6KA1 KD1 KD2 (human)): 96.4% | residual activity (SGK3 (human)): 96.9% | residual activity (SRPK2 (human)): 99.6% | residual activity (STK17A (human)): 91.6% | residual activity (TAOK3 (human)): 98.5% | residual activity (TTK (human)): 98.9% | residual activity (ULK2 (human)): 93.4%

Nc1nccc(-c2c(-c3ccc(F)cc3)ncn2C2CCNCC2)n1
residual activity (ADRBK2 (human)): 97.6% | residual activity (CAMK2A (human)): 100% | residual activity (CAMK4 (human)): 103% | residual activity (CAMKK1 (human)): 103% | residual activity (CDK1 CCNB1 (human)): 96.8% | residual activity (CSNK2A1 (human)): 94.7% | residual activity (DYRK3 (human)): 96% | residual activity (EPHA2 (human)): 102% | residual activity (EPHA3 (human)): 97.4% | residual activity (EPHA8 (human)): 101% | residual activity (FGFR2 (human)): 104% | residual activity (GRK4 (human)): 96.9% | residual activity (HIPK1 (human)): 101% | residual activity (INSRR (human)): 103% | residual activity (MAPK1 (human)): 96.6% | residual activity (MAPKAPK2 (human)): 97.6% | residual activity (MARK2 (human)): 97% | residual activity (MERTK (human)): 98% | residual activity (MKNK2 (human)): 92.1% | residual activity (MYLK (human)): 99.8% | residual activity (MYLK2 (human)): 103% | residual activity (NEK2 (human)): 103% | residual activity (NEK9 (human)): 100% | residual activity (NLK (human)): 12.1% | residual activity (NUAK2 (human)): 122% | residual activity (PAK1 (human)): 97.4% | residual activity (PAK2 (human)): 76.9% | residual activity (PAK4 (human)): 95.1% | residual activity (PIM3 (human)): 96% | residual activity (PRKCG (human)): 87.8% | residual activity (PTK6 (human)): 73.4% | residual activity (RAF1 (human)): 90.9% | residual activity (RET (human)): 89.4% | residual activity (ROCK1 (human)): 103% | residual activity (RPS6KA1 KD1 KD2 (human)): 96.7% | residual activity (SGK3 (human)): 97.5% | residual activity (SRPK2 (human)): 96.4% | residual activity (STK17A (human)): 97.8% | residual activity (TAOK3 (human)): 95.3% | residual activity (TTK (human)): 107% | residual activity (ULK2 (human)): 113%
